Measured values: patent US20160346249A1 (priority 2012, published 2016)
Like-named read-outs stand apart in the source and are kept apart here.

How the values were obtained:
[1] = 26-week rat toxicity and toxicokinetic study; format: in vivo; settings: for Tmax / AUC(0-t) / Cmax: po; for AUC(0-t): read-out: AUC0-24; for mean body weight lower than control: end of 4-week recovery; for mean cumulative body weight gain lower: end of treatment
Description: A portion of the animals from each group was maintained for an additional 4-week post-treatment recovery period.
For toxicology assessment, groups comprised thirty animals of each gender. Assessments included clinical observations, body weight, and food consumption measures noted periodically during the study. […] Ophthalmic examinations were performed during Weeks 1 and 13. […] In addition, the liver, vagina, and ovaries were identified as potential target tissues and were examined microscopically for all animals from all groups at the primary and recovery necropsies. […] 10 animals of each gender from each group were held to week 30 for a 4-week post-treatment recovery period.
For the toxicokinetic studies, there were ten animals of each gender in each group.

[2] = 12-month dog toxicity and toxicokinetic study; format: in vivo; settings: for Cmax / Tmax / AUC(0-t): beagle, dog, plasma, po; for AUC(0-t): read-out: AUC0-24; for body weight lower than control: Week 52
Description: Blood samples were collected on Days 0, 91, 181, 268 and 358 from up to 4 animals/gender/group. Plasma samples collected on Days 91, 181, 268, as well as all plasma samples collected from the control group were not evaluated.
For toxicology assessment four dogs of each gender were included in each group. Assessments included clinical observations, body weight, and food consumption measures which were recorded periodically during the study. Ophthalmic examinations were performed during Weeks 1, 12, 25, 38, 51, and 55 (recovery period). Electrocardiograms were recorded during Weeks 2, 12, 25, 38, and 51. Clinical pathology evaluations (hematology, serum chemistry, and urinalysis) were performed during Weeks 1, 12, 25, 38, 52, and 56 (recovery period). At termination, complete necropsies were performed on all dogs and selected organs were weighed. Selected tissues from the control and 20 (15) mg/kg/day group animals and animals euthanized in extremis were examined microscopically. Sections of livers from dogs in the control and 20 (15) mg/kg/day groups were collected at both the primary and 4-week post-treatment recovery necropsies for assessment of drug metabolism enzyme (microsomal cytochrome P450) activity.

[3] = 13-week mouse toxicity and toxicokinetic study; settings: in vivo; for AUC(0-t): AUC0-24
Description: For toxicology assessment ten mice of each gender were placed in each group.
Ophthalmic examinations were performed during Weeks −1 and 12.

[4] = in vitro; format: in vitro ADME; settings: human, Caco-2, pH 7.4
Description: (§1) (Kalamazoo, Mich.). […] Receiver solutions consisted of buffer only. Sequential samples of transported solute are taken at 20 minute intervals in duplicate over 2 hours and the concentration of the transported compound was determined by HPLC-UV/MS. Test sample concentration is determined by LC/MS. Permeability coefficients are calculated for each sampling interval, and averages from the intervals were determined. The apparent permeability coefficient Papp is calculated from the equation where dQ/dt is the rate of permeation of drug across the cells, C0 is the original concentration in donor compartment at time zero, and A is the area of the cell monolayer. Mass balance in the system is ascertained by comparing the sum of transported solute and remaining donor solute to the starting solution concentration. The integrity of the monolayers is verified by monitoring Lucifer yellow permeation and the known P-glycoprotein substrate […] is used as a positive control.

[5] = system: Caco-2 cells; assay: in vitro; format: in vitro ADME; settings: human, Caco-2, 2 h, 10 μM, pH 7.4
Description: as §1

[6] = mouse, in vivo; for AUC0-24: po
[7] = female, Crl:CD(SD)IGS BR, rat, in vivo, 8 mg/kg/day, females, 8 mg/kg/day, Day 0
[8] = female, Crl:CD(SD)IGS BR, rat, in vivo, 25 mg/kg/day, females, 25 mg/kg/day, Day 0
[9] = female, Crl:CD(SD)IGS BR, rat, in vivo, 25 mg/kg/day, females, 25 mg/kg/day, Day 177
[10] = male, Crl:CD(SD)IGS BR, rat, in vivo, 8 mg/kg/day, males, 8 mg/kg/day, Day 0
[11] = male, Crl:CD(SD)IGS BR, rat, in vivo, 8 mg/kg/day, males, 8 mg/kg/day, Day 177
[12] = male, Crl:CD(SD)IGS BR, rat, in vivo, 25 mg/kg/day, males, 25 mg/kg/day, Day 0
[13] = male, Crl:CD(SD)IGS BR, rat, in vivo, 25 mg/kg/day, males, 25 mg/kg/day, Day 177
[14] = female, 2 mg/kg/day, females, 2 mg/kg/day, Day 0
[15] = female, 2 mg/kg/day, females, 2 mg/kg/day, Day 358
[16] = female, 6 mg/kg/day, females, 6 mg/kg/day, Day 0
[17] = female, 6 mg/kg/day, females, 6 mg/kg/day, Day 358
[18] = female, 15 mg/kg/day, females, 20 (15) mg/kg/day, Day 358
[19] = female, 20 mg/kg/day, females, 20 (15) mg/kg/day, Day 0
[20] = male, 2 mg/kg/day, males, 2 mg/kg/day, Day 0
[21] = male, 2 mg/kg/day, males, 2 mg/kg/day, Day 358
[22] = male, 6 mg/kg/day, males, 6 mg/kg/day, Day 0
[23] = male, 6 mg/kg/day, males, 6 mg/kg/day, Day 358
[24] = male, 15 mg/kg/day, males, 20 (15) mg/kg/day, Day 358
[25] = male, 20 mg/kg/day, males, 20 (15) mg/kg/day, Day 0
[26] = female, Crl:CD-1(ICR) BR, po, 10 mg/kg/day
[27] = female, Crl:CD-1(ICR) BR, po, 30 mg/kg/day
[28] = female, Crl:CD-1(ICR) BR, po, 100 mg/kg/day
[29] = male, Crl:CD-1(ICR) BR, po, 10 mg/kg/day
[30] = male, Crl:CD-1(ICR) BR, po, 30 mg/kg/day
[31] = male, Crl:CD-1(ICR) BR, po, 100 mg/kg/day

Compound: Clc1ccc([C@]23CNC[C@H]2C3)cc1Cl [amitifadine, (+)-1-(3,4-dichlorophenyl)-3-azabicyclo[3.1.0]hexane]
- NOAEL at 26 weeks ([1]; both sexes, Crl:CD(SD)IGS BR, rat, in vivo, oral gavage, 26 weeks): 8 mg/kg/day
- exposure in female vs male rats ([1]; equivalent dosages): ≤ 2 fold
- liver metabolic enzyme induction ([1]; female rats, 25 mg/kg/day, 26 weeks): inducer of CYP1A, CYP2B, CYP2E, CYP3A, and CYP4A
- Tmax [1, 7]: 1 h
- AUC(0-t) [1, 7]: 9970 ng·h/mL
- Tmax ([1]; female, Crl:CD(SD)IGS BR, rat, in vivo, 8 mg/kg/day, females, 8 mg/kg/day, Day 177): 2 h
- Cmax [1, 8]: 2630 ng/mL
- Tmax [1, 8]: 1 h
- AUC(0-t) [1, 8]: 23800 ng·h/mL
- Cmax [1, 9]: 3500 ng/mL
- Tmax [1, 9]: 1 h
- AUC(0-t) [1, 9]: 29700 ng·h/mL
- Tmax ([1]; female, Crl:CD(SD)IGS BR, rat, in vivo, […], females, […], Day 0): 2 h
- Tmax ([1]; female, Crl:CD(SD)IGS BR, rat, in vivo, […], females, […], Day 177): 1 h
- AUC(0-t) ([1]; female, Crl:CD(SD)IGS BR, rat, plasma, 8 mg/kg/day, females, 8 mg/kg/day, Day 177): 11100 ng·h/mL
- mean ovary/oviduct weights higher ([1]; females, 25 mg/kg/day): 12%
- mean body weight lower than control ([1]; females, 25 mg/kg/day): 10%
- mean cumulative body weight gain lower ([1]; females, 25 mg/kg/day): 14%
- liver metabolic enzyme induction ([1]; male rats, 25 mg/kg/day, 26 weeks): inducer of CYP1A, CYP2B, and CYP2E
- Tmax [1, 10]: 1 h
- AUC(0-t) [1, 10]: 5380 ng·h/mL
- Cmax [1, 11]: 954 ng/mL
- Tmax [1, 11]: 1 h
- Cmax [1, 12]: 2600 ng/mL
- Tmax [1, 12]: 1 h
- AUC(0-t) [1, 12]: 18100 ng·h/mL
- Cmax [1, 13]: 2600 ng/mL
- AUC(0-t) [1, 13]: 17800 ng·h/mL
- Tmax ([1]; male, Crl:CD(SD)IGS BR, rat, in vivo, […], males, […], Day 0): 1 h
- Tmax ([1]; male, Crl:CD(SD)IGS BR, rat, in vivo, […], males, […], Day 177): 1 h
- AUC(0-t) ([1]; male, Crl:CD(SD)IGS BR, rat, plasma, 8 mg/kg/day, males, 8 mg/kg/day, Day 177): 7130 ng·h/mL
- mean testes weights higher ([1]; males, 25 mg/kg/day): 9.5%
- mean body weight lower than control ([1]; males, 25 mg/kg/day): 12%
- mean cumulative body weight gain lower ([1]; males, 25 mg/kg/day): 18%
- NOEL ([1]; oral gavage, 26 weeks): 2.5 mg/kg/day
- Cmax [2, 14]: 615 ng/mL
- Tmax [2, 14]: 1 h
- AUC(0-t) [2, 14]: 1580 ng·h/mL
- Cmax [2, 15]: 1150 ng/mL
- Tmax [2, 15]: 1 h
- AUC(0-t) [2, 15]: 3990 ng·h/mL
- Cmax [2, 16]: 3680 ng/mL
- Tmax [2, 16]: 1.3 h
- AUC(0-t) [2, 16]: 10800 ng·h/mL
- Cmax [2, 17]: 2420 ng/mL
- Tmax [2, 17]: 1 h
- AUC(0-t) [2, 17]: 11100 ng·h/mL
- Cmax [2, 18]: 5800 ng/mL
- Tmax [2, 18]: 1.2 h
- AUC(0-t) [2, 18]: 19600 ng·h/mL
- Cmax [2, 19]: 6880 ng/mL
- Tmax [2, 19]: 1 h
- AUC(0-t) [2, 19]: 24100 ng·h/mL
- body weight lower than control ([2]; females, 6 mg/kg/day): 12%
- body weight lower than control ([2]; females, 20 (15) mg/kg/day): 14%
- Cmax [2, 20]: 1040 ng/mL
- Tmax [2, 20]: 1.3 h
- AUC(0-t) [2, 20]: 2130 ng·h/mL
- Cmax [2, 21]: 844 ng/mL
- Tmax [2, 21]: 1 h
- AUC(0-t) [2, 21]: 2220 ng·h/mL
- Cmax [2, 22]: 3250 ng/mL
- Tmax [2, 22]: 1.3 h
- AUC(0-t) [2, 22]: 10500 ng·h/mL
- Cmax [2, 23]: 2780 ng/mL
- Tmax [2, 23]: 1.3 h
- AUC(0-t) [2, 23]: 15800 ng·h/mL
- Cmax [2, 24]: 4830 ng/mL
- Tmax [2, 24]: 1.2 h
- AUC(0-t) [2, 24]: 18100 ng·h/mL
- Cmax [2, 25]: 7980 ng/mL
- Tmax [2, 25]: 1 h
- AUC(0-t) [2, 25]: 29600 ng·h/mL
- body weight lower than control ([2]; males, 6 mg/kg/day): 5%
- body weight lower than control ([2]; males, 20 (15) mg/kg/day): 15%
- NOAEL at 13 weeks ([3]; both sexes, Crl:CD-1(ICR) BR, oral, 13 weeks): 30 mg/kg/day
- MTD at 13 weeks ([3]; both sexes, Crl:CD-1(ICR) BR, po): 100 mg/kg/day
- anovulatory status (females affected) ([3]; female, Crl:CD-1(ICR) BR, 100 mg/kg/day, 13 weeks): 5/10
- AUC0-24 [3, 26]: 1980 ng·h/mL
- AUC(0-t) [3, 26]: 2540 ng·h/mL
- Cmax [3, 26]: 296 ng/mL
- Tmax [3, 26]: 1 h
- AUC0-24 [3, 27]: 7629 ng·h/mL
- AUC(0-t) [3, 27]: 7120 ng·h/mL
- Cmax [3, 27]: 972 ng/mL
- Tmax [3, 27]: 2 h
- AUC0-24 [3, 28]: 17431 ng·h/mL
- AUC(0-t) [3, 28]: 20000 ng·h/mL
- Cmax [3, 28]: 2450 ng/mL
- Tmax [3, 28]: 1 h
- ovary/oviduct weights lower ([3]; 100 mg/kg/day): 23-28%
- AUC0-24 [3, 29]: 2141 ng·h/mL
- AUC(0-t) [3, 29]: 2050 ng·h/mL
- Cmax [3, 29]: 288 ng/mL
- Tmax [3, 29]: 1 h
- AUC0-24 [3, 30]: 6659 ng·h/mL
- AUC(0-t) [3, 30]: 7290 ng·h/mL
- Cmax [3, 30]: 704 ng/mL
- Tmax [3, 30]: 1 h
- AUC0-24 [3, 31]: 28952 ng·h/mL
- AUC(0-t) [3, 31]: 24100 ng·h/mL
- Cmax [3, 31]: 2850 ng/mL
- Tmax [3, 31]: 1 h
- recovery at 2 h, 10 μM [4]: 62%
- Mass balance, AP→BL [5]: 62%
- Mass balance, BL→AP [5]: (88%)
- AUC0-24 ([6]; female, Crl:CD-1(ICR) BR, 10 mg/kg/day): 2086 ng·h/mL
- AUC0-24 ([6]; female, Crl:CD-1(ICR) BR, 30 mg/kg/day): 6474 ng·h/mL
- AUC0-24 ([6]; female, Crl:CD-1(ICR) BR, 100 mg/kg/day): 26436 ng·h/mL
- twitching (animals affected) ([6]; male, Crl:CD-1(ICR) BR, 150 mg/kg/day, 0 study day): 3/10
- AUC0-24 ([6]; male, Crl:CD-1(ICR) BR, 10 mg/kg/day): 1907 ng·h/mL
- AUC0-24 ([6]; male, Crl:CD-1(ICR) BR, 30 mg/kg/day): 7250 ng·h/mL
- AUC0-24 ([6]; male, Crl:CD-1(ICR) BR, 100 mg/kg/day): 40306 ng·h/mL
- AUC0-24 ([6]; male, Crl:CD-1(ICR) BR, 150 mg/kg/day): 40248 ng·h/mL
- absolute liver weight higher ([6]; 150 mg/kg/day): 22%
- absolute lymphocyte counts lower ([6]; 150 mg/kg/day): 54%
- percent neutrophil counts higher ([6]; 150 mg/kg/day): 183%
- percentage lymphocyte counts lower ([6]; 150 mg/kg/day): 31%
